Tested on: normal human melanocyte
Test: Ultraviolet B (UVB)-induced activation inhibition test using normal human melanocyte (MTT, supernatant of UVB-irradiated keratinocytes)
Type: cell-based
Details: light or radiation study, UVB 5 mJ/cm^2, compound 100 mM in DMSO diluted 1,000 times, formazan production ratio, DMSO negative control irradiated with UVB = 100, average of three measurements, read-out: Melanocyte proliferation ratio Average (%)
Method: The suppressing effect of each of the compounds, which was exerted on the activation of melanocyte by the melanocyte activating factor produced and released from normal human keratinocyte by the ultraviolet B (UVB), was investigated by using the index of the cell proliferation function of normal human melanocyte.
Normal human keratinocyte cells (Kurabo Industries, Ltd.) were seeded by using Humedia-KG2 medium (Kurabo Industries, Ltd.) at a concentration of 10×10^4 cells/well in 24-well plate, followed by being cultured for 24 hours.
The compound to be evaluated was dissolved at a concentration of 100 mM in DMSO, which was diluted 1,000 times with Humedia-KG2 medium and used as a sample solution. As for the positive control group, tranexamic acid was dissolved at a concentration of 100 mM in DMSO, which was diluted 1,000 times with Humedia-KG2 medium and used as a positive control sample solution. As for the negative control group, DMSO was diluted 1,000 times with Humedia-KG2 medium, which was used as a negative control sample solution. A concentration, at which the cell proliferation of normal human melanocyte was not affected, was set for each of the compounds.
The medium of normal human keratinocyte was exchanged with Humedia-KG2 medium (sample solution) containing the compound at a predetermined concentration, and the cells were cultured for further 24 hours. After that, the medium was exchanged with PBS (phosphate buffered saline), and cells were irradiated with the ultraviolet B (UVB) at 5 mJ/cm^2 by using an ultraviolet lamp (FL20S•E-30/DMR, Toshiba Medical Supply Co., Ltd.) as a light source. After the ultraviolet radiation, PBS was exchanged with the sample solution. Cells were cultured for further 24 hours, and then the culture supernatant was collected.
Normal human melanocyte cells were seeded to 96-well plate by using a medium of Medium 254 (Kurabo Industries, Ltd.) so that the concentration was 3×10^4 cells/well, and the cultivation was performed for 24 hours. After that, the medium was exchanged with the culture supernatant collected from normal human keratinocyte, and the cells were cultured for further 24 hours. After the cultivation for 24 hours, the medium was exchanged with Humedia-KG2 medium containing 0.5 mg/mL of 3-(4,5-dimethyl-2-thiazoyl)-2,5-diphenyl-2H-tetrazolium bromide (MTT), and the cultivation was performed for 3 hours.
The formazan amount was determined by measuring the absorbances at 570 nm and 690 nm of cell lysate prepared with 2-propanol by means of a microplate reader (Benchmark Plus, Bio-Rad) and subtracting the absorbance at 690 nm from the absorbance at 570 nm.
The suppressing effect of each of the compounds on the melanocyte proliferation was represented by the percentage (%) as the formazan production ratio while the absorbance of the DMSO added group (negative control group) irradiated with the ultraviolet B (UVB) was assumed as 100.
It can be judged that the lower the production ratio of formazan is, the lower the melanocyte proliferation ratio is. Therefore, when the production ratio of formazan is lower, it is possible to judge that the suppressing activity of the compound to be evaluated is high with respect to the activation of melanocyte by the melanocyte activating factor produced and released by normal human keratinocyte.

| SMILES | activity at 100 µM [%] |
| --- | --- |
| Cc1ccc(C(=O)NC(CO)C(=O)O)cc1 (racemic) [Compound 3, N-(p-methylbenzoyl)serine] | 61.6 |
| CCc1ccc(C(=O)N[C@@H](CO)C(=O)O)cc1 [Compound 7, N-(p-ethylbenzoyl)serine] | 65.1 |
| Cc1ccc(C(=O)NC(CO)C(=O)O)cc1 (stereo not drawn) [Compound 15, N-(p-methylbenzoyl)serine] | 60.2 |
| Cc1ccc(C(=O)N[C@@H](CO)C(=O)O)cc1 [Compound 1, N-(p-methylbenzoyl)-L-serine] | 57 |
| COCC(NC(=O)c1ccc(C)cc1)C(=O)O (racemic) [Compound 9, N-(p-methylbenzoyl)-O-methylserine] | 62.3 |
| CCOC(=O)[C@H](CO)NC(=O)c1ccc(C)cc1 [Compound 17, N-(p-methylbenzoyl)serine ethyl ester] | 73.6 |
| O=C(N[C@@H](CO)C(=O)O)c1ccc(F)cc1 [Compound 4, N-(p-fluorobenzoyl)serine] | 55.3 |
| O=C(N[C@@H](CO)C(=O)O)c1ccc2ccccc2c1 [Compound 10, N-(2-naphthoyl)serine] | 82.4 |
| COC(=O)[C@H](CO)NC(=O)c1ccc2ccccc2c1 [Compound 12, N-(2-naphthoyl)serine methyl ester] | 83.1 |
| O=C(N[C@@H](CO)C(=O)O)c1ccc(C(F)(F)F)cc1 [Compound 8, N-(p-trifluoromethylbenzoyl)serine] | 53.9 |
| NC[C@H]1CC[C@H](C(=O)O)CC1 [Tranexamic acid, tranexamic acid, reference compound] | 82 |
| O=C(N[C@@H](CO)C(=O)O)c1ccc(-c2ccccc2)cc1 [Compound 14, N-(4-phenylbenzoyl)serine] | 75 |
| COCC(NC(=O)c1ccccc1)C(=O)O (racemic) [Compound 16, N-benzoyl-O-methylserine] | 65.5 |
| COc1ccc(C(=O)N[C@@H](CO)C(=O)O)cc1 [Compound 5, N-(p-methoxybenzoyl)serine] | 63.4 |
| COCC(NC(=O)c1ccc2ccccc2c1)C(=O)O (racemic) [Compound 13, N-(2-naphthoyl)-O-methylserine] | 80.3 |
| O=C(N[C@@H](CO)C(=O)O)c1ccccc1 [Compound 2, N-benzoyl-serine] | 60.9 |
| CC(=O)OC[C@H](NC(=O)c1ccc(C)cc1)C(=O)O [Compound 11, N-(p-methylbenzoyl)-O-acetylserine] | 71.8 |

Tested on: pigmented guinea pigs
Test: Ultraviolet ray-induced pigmentation inhibition test using pigmented guinea pigs
Type: in vivo, guinea pig
Details: 3% (w/v) in ethanol, 30 μL once a day for 5 weeks; L* on 36th day minus L* before ultraviolet radiation; average ± standard deviation of 8 samples; solvent control −11.83 ± 0.78
Source text: Skins of backs of eight pigmented guinea pigs were subjected to the hair removal and the hair shaving with electric hair clippers and shaver, and these sites were covered with black cloths each having four radiation windows of 2×2 cm in total disposed at two upper left and right positions and two lower left and right positions respectively. After that, the ultraviolet ray was radiated at 300 mJ/cm^2 by using FL20S•E30 lamp as the light source. This operation was repeatedly performed on 1st, 3rd, 5th, and 8th days of the test to induce the pigmentation at the four test sites. The compound to be evaluated (Compound 1) was dissolved and prepared in ethanol so that the concentration was 3% (w/v). Ethanol was applied as the solvent control group. The application of each of the compounds to be evaluated was started from the time of completion of the ultraviolet radiation on the 1st day of the test. Each of the compounds to be evaluated was applied in an amount of 30 μL once a day to the predetermined test sites, and this procedure was continuously carried out for 5 weeks (until 35th day of the test). […]

| SMILES | ΔL* value |
| --- | --- |
| Cc1ccc(C(=O)N[C@@H](CO)C(=O)O)cc1 [Compound 1, N-(p-methylbenzoyl)-L-serine] | −9.98 ± 0.71 |

Reference: patent US9414998B2, “Preventing or ameliorating agent for pigmentation” (Pola Chemical Industries Inc., priority 2009, dated 2016)
